Earlier results in US20150306063A1, “COMPOSITION AND METHOD FOR VAGINAL THERAPY” (priority 2014, published 2015).

Details: elderly patients, including patients older than 65 years of age

COc1ccccc1OCC(O)COC(N)=O (stereo not shown) [Methocarbamol, 3-(2-methoxyphenoxy)-1,2-propanediol 1-carbamate]
half-life in the elderly as compared with a younger population: only slightly prolonged
